Results: patent US20250136594A1 (Tango Therapeutics, Inc., priority 2022, published 2025)
Blank lines part the entries; values can stand above or below the compound they belong to.

Key:
[1] = tested on: SDMA in HAP1 MTAP-deleted (MTAP-null) cell line (PRMT5 inhibition); experiment: SDMA in-cell western assay, HAP1 MTAP-deleted cell line; settings: for IC50 / IC90: Homo sapiens; for IC50: HAP1, read-out: Hap1 MTAP deleted IC50; for IC90: HAP1, read-out: Hap1 MTAP deleted IC90; for Hap1 MTAP intact/deleted ratio: ratio of SDMA IC50 in HAP1 MTAP-intact to HAP1 MTAP-deleted cell line
Excerpt: (§1) HAP1 MTAP-intact is a cell line in which endogenous levels of MTAP are expressed, and HAP1 MTAP-deleted is an MTAP-null cell line.

[2] = tested on: HAP1 MTAP-deleted cell line; experiment: Viability assay, HAP1 MTAP-deleted cell line; type: cell-based; settings: Homo sapiens; viability assay, HAP1 MTAP-deleted cell line; read-out: Hap1 MTAP deleted viability IC50
[3] = tested on: SDMA in HAP1 MTAP-intact cell line (PRMT5 inhibition); experiment: SDMA in-cell western assay, HAP1 MTAP-intact cell line; settings: Homo sapiens, HAP1, read-out: Hap1 MTAP intact IC50
Excerpt: as §1

IC50 [1]: < 5 nM | IC90 [1]: < 75 nM | IC50 [3]: > 50 nM
Compound: Cc1cc(C(F)(F)F)ccc1CN(C)C(=O)C(=O)Nc1cnc(N)c2cn[nH]c12 [Compound 170, N-(4-Amino-1H-pyrazolo[4,3-c]pyridin-7-yl)-N′-methyl-N′-[[2-methyl-4-(trifluoromethyl)phenyl]methyl]oxamide]
Hap1 MTAP intact/deleted ratio [1]: A (IC50 ratio greater than or equal to 30 fold) | IC50 [2]: < 100 nM

IC50 [1]: < 5 nM | IC90 [1]: < 75 nM | IC50 [3]: 5 to 50 nM
Compound: Nc1ncc(NC(=O)C(=O)N(Cc2ccc(C(F)(F)F)cn2)Cc2ncccn2)c2[nH]ncc12 [Compound 25, N-(4-amino-1H-pyrazolo[4,3-c]pyridin-7-yl)-N′-(pyrimidin-2-ylmethyl)-N′-[[5-(trifluoromethyl)-2-pyridyl]methyl]oxamide]
Hap1 MTAP intact/deleted ratio [1]: B (IC50 ratio greater than or equal to 15 fold but lower than 30 fold) | IC50 [2]: < 100 nM

IC50 [1]: < 5 nM | IC90 [1]: < 75 nM | IC50 [3]: 5 to 50 nM
Compound: CC[C@@H](C)CN(Cc1ccc(C(F)(F)F)cn1)C(=O)C(=O)Nc1cnc(N)c2cn[nH]c12 [Compound 75, (R)—N^1-(4-amino-1H-pyrazolo[4,3-c]pyridin-7-yl)-N^2-(2-methylbutyl)-N^2-((5-(trifluoromethyl)pyridin-2-yl)methyl)oxalamide]
Hap1 MTAP intact/deleted ratio [1]: C (IC50 ratio of less than 15 fold) | IC50 [2]: < 100 nM

IC50 [1]: < 5 nM | IC90 [1]: < 75 nM | IC50 [3]: 5 to 50 nM
Compound: C[C@H](c1ccc(C(F)(F)C(F)(F)F)cc1)N(C)C(=O)C(=O)Nc1cnc(N)c2cn[nH]c12 [Compound 121, N-(4-amino-1H-pyrazolo[4,3-c]pyridin-7-yl)-N′-methyl-N′—[(1R)-1-[4-(1,1,2,2,2-pentafluoroethyl)phenyl]ethyl]oxamide]
Hap1 MTAP intact/deleted ratio [1]: B (IC50 ratio greater than or equal to 15 fold but lower than 30 fold) | IC50 [2]: < 100 nM

IC50 [1]: < 5 nM | IC90 [1]: < 75 nM | IC50 [3]: 5 to 50 nM
Compound: CC(c1ccc(C(F)(F)F)cc1)N(C(=O)C(=O)Nc1cnc(N)c2cn[nH]c12)C1CCC1 (centres unmarked) [Compound 192, N-(4-Amino-1H-pyrazolo[4,3-c]pyridin-7-yl)-N′-cyclobutyl-N′-[1-[4-(trifluoromethyl)phenyl]ethyl]oxamide]
Hap1 MTAP intact/deleted ratio [1]: B (IC50 ratio greater than or equal to 15 fold but lower than 30 fold) | IC50 [2]: < 100 nM

IC50 [1]: < 5 nM | IC90 [1]: < 75 nM | IC50 [3]: 5 to 50 nM
Compound: Cc1ccccc1CN(Cc1ccc(C(F)(F)F)cn1)C(=O)C(=O)Nc1cnc(N)c2cn[nH]c12 [Compound 76, N-(4-amino-1H-pyrazolo[4,3-c]pyridin-7-yl)-N′-(o-tolylmethyl)-N′-[[5-(trifluoromethyl)-2-pyridyl]methyl]oxamide]
Hap1 MTAP intact/deleted ratio [1]: C (IC50 ratio of less than 15 fold) | IC50 [2]: < 100 nM

The next lines start with the compound.

Compound: Cc1ccccc1CN(Cc1ccc(Cl)cc1)C(=O)C(=O)Nc1cnc(N)c2cn[nH]c12 [Compound 109, N-(4-amino-1H-pyrazolo[4,3-c]pyridin-7-yl)-N′-[(4-chlorophenyl)methyl]-N′-(o-tolylmethyl)oxamide]
IC50 [1]: < 5 nM | IC90 [1]: < 75 nM | Hap1 MTAP intact/deleted ratio [1]: C (IC50 ratio of less than 15 fold) | IC50 [2]: < 100 nM | IC50 [3]: 5 to 50 nM

Compound: CC(C)c1ccccc1CN(C)C(=O)C(=O)Nc1cnc(N)c2cn[nH]c12 [Compound 183, N-(4-amino-1H-pyrazolo[4,3-c]pyridin-7-yl)-N′-[(2-isopropylphenyl)methyl]-N′-methyl-oxamide]
IC50 [1]: 5 to 50 nM | IC90 [1]: > 125 nM | Hap1 MTAP intact/deleted ratio [1]: A (IC50 ratio greater than or equal to 30 fold) | IC50 [2]: 100 to 1000 nM | IC50 [3]: > 50 nM

Compound: C[C@H](c1ccc(C(F)(F)C(F)(F)F)cc1)N(C)C(=O)C(=O)Nc1cnc(N)c2c1cnn2C [Compound 81, N-(7-Amino-1-methyl-pyrazolo[3,4-c]pyridin-4-yl)-N′-methyl-N′—[(1R)-1-[4-(1,1,2,2,2-pentafluoroethyl)phenyl]ethyl]oxamide]
IC50 [1]: < 5 nM | IC90 [1]: < 75 nM | Hap1 MTAP intact/deleted ratio [1]: A (IC50 ratio greater than or equal to 30 fold) | IC50 [2]: < 100 nM | IC50 [3]: 5 to 50 nM

Compound: Cc1ccccc1CN(C(=O)C(=O)Nc1cnc(N)c2cn[nH]c12)[C@H](C)C(C)C [Compound 177, (R)—N^1-(4-amino-1H-pyrazolo[4,3-c]pyridin-7-yl)-N^2-(2-methylbenzyl)-N^2-(3-methylbutan-2-yl)oxalamide]
IC50 [1]: < 5 nM | IC90 [1]: < 75 nM | Hap1 MTAP intact/deleted ratio [1]: B (IC50 ratio greater than or equal to 15 fold but lower than 30 fold) | IC50 [2]: < 100 nM | IC50 [3]: > 50 nM

Compound: Nc1ncc(NC(=O)C(=O)N(Cc2ccccc2)Cc2ccccn2)c2[nH]ncc12 [Compound 9, N-(4-amino-1H-pyrazolo[4,3-c]pyridin-7-yl)-N′-benzyl-N′-(2-pyridylmethyl)oxamide]
IC50 [1]: < 5 nM | IC90 [1]: < 75 nM | Hap1 MTAP intact/deleted ratio [1]: A (IC50 ratio greater than or equal to 30 fold) | IC50 [2]: < 100 nM | IC50 [3]: > 50 nM

Compound: COc1ncc(NC(=O)C(=O)N(Cc2ccc(C(F)(F)F)cn2)[C@@H]2CCc3ccccc32)cc1C(N)=O [Compound 30, (R)-N1-(5-carbamoyl-6-methoxypyridin-3-yl)-N^2-(2,3-dihydro-1H-inden-1-yl)-N^2-((5-(trifluoromethyl)pyridin-2-yl)methyl)oxalamide]
IC50 [1]: < 5 nM | IC90 [1]: < 75 nM | Hap1 MTAP intact/deleted ratio [1]: A (IC50 ratio greater than or equal to 30 fold) | IC50 [2]: < 100 nM | IC50 [3]: > 50 nM

Compound: C[C@H](c1ccc(C(F)(F)C(F)(F)F)cc1F)N(C)C(=O)C(=O)Nc1cnc(N)c2cn[nH]c12 [Compound 188, N-(4-Amino-1H-pyrazolo[4,3-c]pyridin-7-yl)-N′-methyl-N′—[(1R)-1-[2-fluoro-4-(1,1,2,2,2-pentafluoroethyl)phenyl]ethyl]oxamide]
IC50 [1]: < 5 nM | IC90 [1]: < 75 nM | Hap1 MTAP intact/deleted ratio [1]: B (IC50 ratio greater than or equal to 15 fold but lower than 30 fold) | IC50 [2]: < 100 nM | IC50 [3]: 5 to 50 nM

Compound: Cc1cccnc1CN(C(=O)C(=O)Nc1cnc(N)c2cn[nH]c12)C(C)C(C)C (single isomer, unassigned) [Compound 106]
IC50 [1]: < 5 nM | IC90 [1]: < 75 nM | Hap1 MTAP intact/deleted ratio [1]: C (IC50 ratio of less than 15 fold) | IC50 [2]: < 100 nM | IC50 [3]: 5 to 50 nM

Compound: Cc1ccnc(CN(Cc2ccccc2)C(=O)C(=O)Nc2cnc(N)c3cn[nH]c23)c1 [Compound 156, N-(4-amino-1H-pyrazolo[4,3-c]pyridin-7-yl)-N′-benzyl-N′-[(4-methyl-2-pyridyl)methyl]oxamide]
IC50 [1]: < 5 nM | IC90 [1]: < 75 nM | Hap1 MTAP intact/deleted ratio [1]: A (IC50 ratio greater than or equal to 30 fold) | IC50 [2]: < 100 nM | IC50 [3]: > 50 nM

Compound: Nc1ncc(NC(=O)C(=O)N(Cc2ccccc2)Cc2ncccc2C(F)(F)F)c2[nH]ncc12 [Compound 154, N-(4-amino-1H-pyrazolo[4,3-c]pyridin-7-yl)-N′-benzyl-N′-[[3-(trifluoromethyl)-2-pyridyl]methyl]oxamide]
IC50 [1]: < 5 nM | IC90 [1]: < 75 nM | Hap1 MTAP intact/deleted ratio [1]: A (IC50 ratio greater than or equal to 30 fold) | IC50 [2]: < 100 nM | IC50 [3]: 5 to 50 nM
